This passage reports IC50 and viability, T/C results from PubChem BioAssay AID1963874 (Molecular Pharmacology Branch, DTP, NCI, 2024).

The test system of this test is 253994-281-T-J1-PDC KRAS-mutant spheroids with HUVEC/MSC, viability. The experiment in a line: Anticancer human tumor 253994-281-T-J1-PDC patient-derived colorectal carcinoma cell line growth inhibition [KRAS2]. Particulars: for viability, T/C: stronger effect = lower value. In short, it runs like this:
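Combination screen of spheroid viability in tumor-cell co-cultures with endothelial (HUVEC) and mesenchymal stem cell stroma. Each agent was tested in half-log dilutions, topping at clinical Cmax or at 10 microM without a known Cmax.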

The mark [1] stands for this setting: curve of first compound, second compound 0.1 µM.
[2] abbreviates: curve of first compound, second compound 0.316 µM.
[3] abbreviates: curve of first compound, second compound 1 µM.
The mark [4] stands for this setting: curve of first compound, second compound 3.16 µM.
Setting [5] is: curve of first compound, second compound 10 µM.
The mark [6] stands for this setting: second compound 0.1 µM, first compound 0.0316 µM.
The mark [7] stands for this setting: second compound 0.1 µM, first compound 0.1 µM.
Where [8] appears, read: second compound 0.1 µM, first compound 0.316 µM.
Setting [9] is: second compound 0.1 µM, first compound 1 µM.
Setting [10] is: second compound 0.1 µM, first compound 3.16 µM.
The mark [11] stands for this setting: second compound 0.316 µM, first compound 0.0316 µM.
Setting [12] is: second compound 0.316 µM, first compound 0.1 µM.
The mark [13] stands for this setting: second compound 0.316 µM, first compound 0.316 µM.
The mark [14] stands for this setting: second compound 0.316 µM, first compound 1 µM.
Where [15] appears, read: second compound 0.316 µM, first compound 3.16 µM.
Setting [16] is: second compound 1 µM, first compound 0.0316 µM.
Where [17] appears, read: second compound 1 µM, first compound 0.1 µM.
Setting [18] is: second compound 1 µM, first compound 0.316 µM.
The mark [19] stands for this setting: second compound 1 µM, first compound 1 µM.
Where [20] appears, read: second compound 1 µM, first compound 3.16 µM.
Where [21] appears, read: second compound 3.16 µM, first compound 0.0316 µM.
Where [22] appears, read: second compound 3.16 µM, first compound 0.1 µM.
The mark [23] stands for this setting: second compound 3.16 µM, first compound 0.316 µM.
[24] abbreviates: second compound 3.16 µM, first compound 1 µM.
The mark [25] stands for this setting: second compound 3.16 µM, first compound 3.16 µM.
The mark [26] stands for this setting: second compound 10 µM, first compound 0.0316 µM.
Where [27] appears, read: second compound 10 µM, first compound 0.1 µM.
The mark [28] stands for this setting: second compound 10 µM, first compound 0.316 µM.
Setting [29] is: second compound 10 µM, first compound 1 µM.
The mark [30] stands for this setting: second compound 10 µM, first compound 3.16 µM.
Where [31] appears, read: second compound 0.1 µM, first compound 0.01 µM.
Setting [32] is: second compound 0.316 µM, first compound 0.01 µM.
Where [33] appears, read: second compound 1 µM, first compound 0.01 µM.
[34] abbreviates: second compound 3.16 µM, first compound 0.01 µM.
The mark [35] stands for this setting: second compound 10 µM, first compound 0.01 µM.
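Note: spheroids exposed to agents for seven days before readout.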
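Throughout, for viability, T/C: percent of DMSO vehicle control viability.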

In the case of `COc1cc(Nc2ncc3c(n2)-c2ccc(Cl)cc2C(c2c(F)cccc2OC)=NC3)ccc1C(=O)O` + CC1OCC2(CCN(c3cnc(Sc4ccnc(N)c4Cl)c(N)n3)CC2)C1N, the IC50 is, setting by setting: under setting [1], less than 31.6 nM; under setting [2], less than 31.6 nM; under setting [3], less than 31.6 nM; under setting [4], less than 31.6 nM; under setting [5], less than 31.6 nM. Also, the viability, T/C under setting [6] was 51%; the viability, T/C under setting [7] is 25.3%; the viability, T/C under setting [8] is 24.6%; the viability, T/C under setting [9] was 28.7%; the viability, T/C under setting [10] is 40.4%; the viability, T/C (second compound 0.1 µM, first compound 10 µM) is 42.6%. For the same compound, the viability, T/C is, setting by setting: under setting [11], 34.6%; under setting [12], 21.5%; under setting [13], 22%; under setting [14], 26%; under setting [15], 25.8%; (second compound 0.316 µM, first compound 10 µM) 23.7%. Also, the viability, T/C under setting [16] is 23.4%; the viability, T/C under setting [17] was 16.7%; the viability, T/C under setting [18] was 17.7%; the viability, T/C under setting [19] was 19.6%; the viability, T/C under setting [20] is 18.7%; the viability, T/C (second compound 1 µM, first compound 10 µM) is 20.1%. For the same compound, the viability, T/C is 19.5% under setting [21]; 14.2% under setting [22]; 14.1% under setting [23]; 18.5% under setting [24]; 14.2% under setting [25]; 21% (second compound 3.16 µM, first compound 10 µM). Also, the viability, T/C is 13.3% under setting [26]; 12.5% under setting [27]; 10.3% under setting [28]; 9.72% under setting [29]; 10.8% under setting [30]; 9.48% (second compound 10 µM, first compound 10 µM).

Regarding `CN(C)C/C=C/C(=O)Nc1cc2c(Nc3ccc(F)c(Cl)c3)ncnc2cc1O[C@H]1CCOC1` + CNCc1ccccc1-c1csc(C(C)Nc2nc(C)nc3cc(OC)c(OC)cc23)c1, the IC50 by setting is: under setting [1], greater than 100 nM; under setting [2], greater than 100 nM; under setting [3], greater than 100 nM; under setting [4], 2.36 nM; under setting [5], less than 0.316 nM. Also, the viability, T/C is 99.3% (second compound 0.1 µM, first compound 0.000316 µM); 91.9% (second compound 0.1 µM, first compound 0.001 µM); 80.3% (second compound 0.1 µM, first compound 0.00316 µM); 74.4% under setting [31]; 83.4% under setting [6]; 54.7% under setting [7]. Moreover, the viability, T/C was 81.7% (second compound 0.316 µM, first compound 0.000316 µM); 78.1% (second compound 0.316 µM, first compound 0.001 µM); 81.3% (second compound 0.316 µM, first compound 0.00316 µM); 69% under setting [32]; 67.2% under setting [11]; 51% under setting [12]. The viability, T/C is 83.2% (second compound 1 µM, first compound 0.000316 µM); 83% (second compound 1 µM, first compound 0.001 µM); 60.4% (second compound 1 µM, first compound 0.00316 µM); 64.9% under setting [33]; 60.5% under setting [16]; 62.1% under setting [17]. In addition, the viability, T/C (second compound 3.16 µM, first compound 0.000316 µM) is 93.9%; the viability, T/C (second compound 3.16 µM, first compound 0.001 µM) was 97.6%; the viability, T/C (second compound 3.16 µM, first compound 0.00316 µM) is 33.2%; the viability, T/C under setting [34] was 0.82%; the viability, T/C under setting [21] was 68.7%; the viability, T/C under setting [22] is 34.4%. Also, the viability, T/C (second compound 10 µM, first compound 0.000316 µM) was 0.18%; the viability, T/C (second compound 10 µM, first compound 0.001 µM) is 0.2%; the viability, T/C (second compound 10 µM, first compound 0.00316 µM) was 0.17%; the viability, T/C under setting [35] is 0.26%; the viability, T/C under setting [26] was 0.33%; the viability, T/C under setting [27] is 0.24%.

Regarding `COc1cc2nc(C)nc(NC(C)c3cc(N)cc(C(F)(F)F)c3)c2cc1OC1CCOC1` (stereo unspecified), under “compound 0.316 µM”, the viability, T/C was 86.9% [middle of 17 runs]. For the same compound, the IC50 is, setting by setting: (compound alone, run of 08/19/2021) greater than 10000 nM; (compound alone, run of 08/26/2021) greater than 10000 nM; (compound alone, run of 09/02/2021) greater than 10000 nM.

With `CC(=O)OC12COC1CC(O)C1(C)C(=O)C(O)C3=C(C)C(OC(=O)C(O)C(NC(=O)OC(C)(C)C)c4ccccc4)CC(O)(C(OC(=O)c4ccccc4)C21)C3(C)C` (stereo unspecified) + COc1cc2nc(C)nc(NC(C)c3cc(N)cc(C(F)(F)F)c3)c2cc1OC1CCOC1, the IC50 was 16.7 nM under setting [1]; less than 10 nM under setting [2]; less than 10 nM under setting [3]; less than 10 nM under setting [4]; less than 10 nM under setting [5]. Moreover, the viability, T/C reads like this: under setting [31], 61.3%; under setting [6], 35.7%; under setting [7], 26.1%; under setting [8], 20.6%; under setting [9], 22.6%; under setting [10], 19.6%. The viability, T/C is 46.2% under setting [32]; 26.9% under setting [11]; 21.4% under setting [12]; 19.7% under setting [13]; 18.8% under setting [14]; 19.1% under setting [15]. Further, the viability, T/C was 35.9% under setting [33]; 41.4% under setting [16]; 21.6% under setting [17]; 19.9% under setting [18]; 19.7% under setting [19]; 22.8% under setting [20]. The viability, T/C is, setting by setting: under setting [34], 25.8%; under setting [21], 21.6%; under setting [22], 17.4%; under setting [23], 18%; under setting [24], 20.1%; under setting [25], 20.6%. For the same compound, the viability, T/C under setting [35] was 20.1%; the viability, T/C under setting [26] is 22.4%; the viability, T/C under setting [27] is 19.2%; the viability, T/C under setting [28] is 23.3%; the viability, T/C under setting [29] was 20.2%; the viability, T/C under setting [30] was 25.4%.

Turning to `CC(C)n1nc(-c2ccc3oc(N)nc3c2)c2c(N)ncnc21`, the viability, T/C is 94.6% [middle of 5 runs] (compound 0.000316 µM); 91.2% [middle of 5 runs] (compound 0.001 µM); 88.7% [middle of 5 runs] (compound 0.00316 µM); 83% [middle of 5 runs] (compound 0.01 µM); 80.2% [middle of 5 runs] (compound 0.0316 µM); 58.8% [middle of 5 runs] (compound 0.1 µM). Moreover, the IC50 (curve of compound) was greater than 100 nM.
